Assay results reported in patent US12285392B2, “Method for modulating metabolism” (Brightseed, Inc., priority 2018, dated 2025).

Experiments:
HepG2 cells = assay: Lipid clearance in HepG2 cells (steatosis assay, Oil Red O); assay type: cell-based; conditions: HepG2 liver cells, 20 μM
Procedure: Lipid Clearance in HepG2 and T6PNE Cells (Steatosis Assay). The steatosis assay was carried out as described (Kiselyuk, et al. (2012) Chem. Biol. 19(7):806-818) with the exception of the drug concentration, which was 20 μM for N-trans-caffeoyltyramine with 0.25 mM palmitate in HepG2 cell lines, and 10 μM of either N-trans-caffeoyltyramine, N-trans-caffeoyltyramine, or pcoumaroyltyramine, with 0.25 mM palmitate in T6PNE cell lines. Steatosis was assessed using the Oil Red 0 Method for Fats kits (Poly Scientific; Warrington, PA), per manufacturer's guidelines. Briefly, frozen tissue slides or fixed cells were incubated in neat propylene glycol for 2 minutes and Oil Red 0 solution for 15 hours for slides or 1 hour for fixed cells, differentiated in 85% propylene glycol solution for 1 minute, washed twice with distilled water and stained in Hematoxylin of 10 seconds. Slides were mounted with glycerin jelly mounting medium.

estrogenic activity = assay: Counter-screen for estrogenic activity (E47MER luciferase reporter in HeLa cells); assay type: cell-based, human; conditions: FIG. 5
Procedure: Counter-Screen for Estrogenic Activity. Estrogenic activity was monitored by co-transfection of a reporter plasmid containing a multimerized E-box 5′ of a minimal promoter fused to the Firefly luciferase gene (4RTK-luc) with wild-type E47 or E47MER (Kiselyuk, et al. (2010) J. Biomol. Screen 15(6):663-70). HeLa cells were transfected using polyethylenimine, 0.2 μg 4RTK-Luc plasmid and either 0.3 μg of human E47, E47MER or pMSCVhph vector in 50 μl of serum-free Dulbecco's modification of Eagle medium per well. Transfections included Renilla luciferase (pRL-TK) plasmid as a control for transfection efficacy. Transfection conditions were as described in the PPRE-Luc reporter assay of Kiselyuk, et al. ((2010) J. Biomol. Screen 15(6):663-70). Sixteen hours after transfection, culture media were changed and maintained for 48 hours with tamoxifen and/or compound or vehicle (DMSO). Cells were then lysed and assayed for luciferase activity using the Promega DUAL-LUCIFERASE® reporter assay kit (Promega Corp., Madison, WI), and luminescence was measured using the Veritas™ Microplate Luminometer (Turner Biosystems, Sunnyvale, CA). Data were normalized to Renilla luciferase (pRL-TK) and expressed as fold-change over vehicle alone.

diet-induced obese mice = assay: Efficacy and tolerability in diet-induced obese mice; assay type: in vivo
Procedure: Alkaline Phosphatase (ALP) Quantitation. Increased levels of ALP in blood are considered indicative of liver function abnormalities. Thus, ALP was assayed in accordance with known methods (Kiselyuk, et al. (2012) Chem. Biol. 19(7):806-818). Briefly, prior to sacrifice, blood was drawn and analyzed using a Vet Scan blood analyzer, measuring alkaline phosphatase (ALP, IU/L), alanine aminotransferase (ALT, IU/L), gamma glutamyl transferase (GGT, IU/L), bile acids (BA, μmol/L), total bilirubin (TBIL, mg/dL), albumin (ALB, g/dL), blood urea nitrogen (BUN, mg/dL), and cholesterol (CHOL, mg/dL).
Triglyceride (TG) Quantitation. TG quantity was assayed using a Triglyceride Colorimetric Assay Kit (Cayman Chemicals; Ann Arbor, MI) according to the manufacturer's instructions.
Lipid Droplet Size Analysis. All slides were scanned at a magnification of 20× using the Aperio Scanscope FL system (Aperio Technologies Inc.; Vista, CA). The appropriate dyes were assigned and illumination levels were calibrated using a preset procedure; the parameters were saved and applied to all slides. The acquired digital images represented whole tissue sections. Sections were evaluated for image quality. All acquired images were subsequently placed in dedicated project folders, and stored on a designated local server. Selected areas of the slides were selected using Aperio Imagescope (version 12 Aperio Technologies Inc.). For analysis, slides were viewed, whole tissue areas were selected and analyzed using the web-based Image Scope viewer. Slides were quantified using the ‘Color Deconvolution v9’ algorithm for oil redo staining (version 11 Aperio Technologies Inc.). The algorithm was optimized using a preset procedure to maximize the strong red color positive oil droplets signal to noise ratio and the subsequent macro was saved and applied to all slides.
HNF4α Immunostaining in Organ Samples. Samples were harvested from mice, fixed in 4% paraformaldehyde and embedded in paraffin or O.C.T. freezing media (Sakura Finetek; Torrance, CA) Slides of 5 μm thickness were washed four times with PBS and treated with 0.3% Triton™ in PBS for 10 minutes. Antigen retrieval was carried out with CitriSolv™ (Fisher Scientific; Waltham, MA) for 10 minutes in sub-boiling temperature. After washing with PBS for 10 minutes, slides were incubated in blocking solution with 5% normal donkey serum (Jackson Immuno Research; West Grove, PA) for 60 minutes at room temperature. Cells were fixed in 4% paraformaldehyde for 15 minutes on 4° C. and washed with PBS, treated with 0.3% Triton™ in PBS for 10 minutes and blocked as previously described for slide samples.
Primary Antibodies. HNF4α antibodies were used (#sc-6556, Santa Cruz Biotechnology; Santa Cruz, CA and #3113, Cell Signaling Technology; Danvers, MA). For fluorescent imaging, samples were incubated with ALEXA FLOUR® 488 green-fluorescent dye or Rhodamine labeled anti-mouse, rabbit or goat and nuclei were counterstained with DAPI (4′,6-diamidino-2-phenylindole) Controls using secondary antibodies alone were used to ensure specificity of immunostaining. Fluorescently labeled sections were analyzed with a conventional inverted microscope (Olympus, PlanFl 40×/0.60) or with a confocal microscope equipped with a krypton/argon laser.
The experiments were performed to establish feeding and treatment regimen, dosing and administration regimens, as well as to provide evidence of beneficial effects of N-trans-caffeoyltyramine on glucose and lipid homeostasis, hepatic steatosis, β-cell function and hepatocyte function. Twelve mice (10 weeks old) were fed a high-fat diet for four weeks to induce obesity. After four weeks, and while on the high-fat diet, six mice were administered 5% DMSO or 120 mg/kg N-trans-caffeoyltyramine twice a day intraperitoneally for 14 days. One hour after the last i.p. injection of DMSO or N-trans-caffeoyl tyramine, the animals were sacrificed and blood and organ (liver, kidney, gut and pancreas) samples were collected. […]

HNF4α mRNA = HNF4α mRNA levels by quantitative PCR; assay type: cell-based; conditions: FIG. 3
Procedure: Expression of Insulin and HNF4α. RNA was purified using a RNEASY® chromatographic separation and isolation kits (Qiagen), and converted to cDNA using the gScript™ cDNA SuperMix (Quanta Biosciences). Q-PCR was conducted with cDNA corresponding to 2 μg of RNA using an Opticon Real-Time System (MJ Research) and QPCR SuperMix (BioPioneer). See All mRNA values were normalized to 18S rRNA values and are expressed as fold changes over vehicle-treated control.

O=C(/C=C/c1ccc(O)c(O)c1)NCCc1ccc(O)cc1 [N-trans-caffeoyltyramine]
Clearing of fats (Oil Red O staining) (HepG2 cells): capable of clearing harmful fats from the liver | Accumulation of fats (HepG2 cells; 0.25 mM palmitate): inhibited accumulation of fats | Estrogenic activity (estrogenic activity): did not exhibit estrogenic activity | Lipid accumulation in the liver (diet-induced obese mice; 120 mg/kg twice a day i.p. for 14 days): decreased | Weight loss, sickness or abnormal behaviors compared to control (diet-induced obese mice; 120 mg/kg twice a day i.p. for 14 days, high-fat diet mice): None of the treated mice exhibited weight loss, sickness, or abnormal behaviors | Lipid droplet sizes in the liver (diet-induced obese mice; 120 mg/kg twice a day i.p. for 14 days, FIG. 8): reduced | HNF4α expression in the liver (diet-induced obese mice; 120 mg/kg twice a day i.p. for 14 days, P=0.0042, FIG. 7): significantly increased | HNF4α expression in intestines (diet-induced obese mice; FIG. 12): increased | Levels of alkaline phosphatase (diet-induced obese mice; blood, 120 mg/kg twice a day i.p. for 14 days, FIG. 9): significantly reduced | HNF4α expression in the pancreas (diet-induced obese mice; compared to DMSO control mice, FIG. 11): increased | Levels of triglycerides (diet-induced obese mice; liver, 120 mg/kg twice a day i.p. for 14 days, FIG. 10): significantly reduced | HNF4α gene expression (HNF4α mRNA): upregulated
